# Measurements as given in ChEMBL document CHEMBL1201862, “PubChem BioAssay data set” (2004).
#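 Assay format: 96-well plates, 48-hour exposure. GI50 marks 50% less growth.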 Active and inactive are the calls of the source. Rule as the data show it: active = GI50 up to about 1.1 µM and inactive = higher.
# Key:
# Test in all cases: NCI anticancer screen, dose series, 48 h
# LXFL 529 = system: LXFL 529
# DMS-114 = system: DMS-114
# COLO 205 = system: COLO 205
# SN12C = system: SN12C
# TK-10 = system: TK-10
# SNB-75 = system: SNB-75
# NCI-H522 = system: NCI-H522
# IGROV-1 = system: IGROV-1
# A549 = system: A549
# 786-0 = system: 786-0
# CAKI-1 = system: CAKI-1
# HCC 2998 = system: HCC 2998
# SR = system: SR
# DLD-1 = system: DLD-1
# UACC-62 = system: UACC-62
# SNB-78 = system: SNB-78
# SK-MEL-2 = system: SK-MEL-2
# SF-539 = system: SF-539
# SNB-19 = system: SNB-19
# HL-60 = system: HL-60
# OVCAR-8 = system: OVCAR-8
# UACC-257 = system: UACC-257
# Malme-3M = system: Malme-3M
# SK-OV-3 = system: SK-OV-3
# RPMI-8226 = system: RPMI-8226
# M14 = system: M14
# CCRF-CEM = system: CCRF-CEM
# M19-MEL = system: M19-MEL
# OVCAR-4 = system: OVCAR-4
# A498 = system: A498
# NCI-H460 = system: NCI-H460
# SF-268 = system: SF-268
# HCT-15 = system: HCT-15
# K562 = system: K562
# UO-31 = system: UO-31
# KM-20L2 = system: KM-20L2
# SK-MEL-5 = system: SK-MEL-5
# SK-MEL-28 = system: SK-MEL-28
# MOLT-4 = system: MOLT-4
# U-251 = system: U-251
# OVCAR-3 = system: OVCAR-3
# KM12 = system: KM12
# HOP-18 = system: HOP-18
# HCT-116 = system: HCT-116
# DMS-273 = system: DMS-273
# ACHN = system: ACHN
# SW-620 = system: SW-620
# RXF 393 = system: RXF 393
# NCI-H226 = system: NCI-H226
# HOP-62 = system: HOP-62
# NCI-H23 = system: NCI-H23
# EKVX = system: EKVX
# SF-295 = system: SF-295
# LOX IMVI = system: LOX IMVI
# HOP-92 = system: HOP-92
# OVCAR-5 = system: OVCAR-5
# HT-29 = system: HT-29
structure (smiles),measurement,setting,value
O=C1c2ccccc2C(=O)N1C/C=C/CO,GI50,LXFL 529,> 100 µM (inactive)
same,GI50,DMS-114,> 100 µM (inactive)
same,GI50,COLO 205,> 100 µM (inactive)
same,GI50,SN12C,> 100 µM (inactive)
same,GI50,TK-10,> 100 µM (inactive)
same,GI50,SNB-75,> 100 µM (inactive)
same,GI50,NCI-H522,98.2 µM (inactive)
same,GI50,IGROV-1,> 100 µM (inactive)
same,GI50,A549,> 100 µM (inactive)
same,GI50,786-0,> 100 µM (inactive)
same,GI50,CAKI-1,> 100 µM (inactive)
same,GI50,HCC 2998,> 100 µM (inactive)
same,GI50,SR,> 100 µM (inactive)
same,GI50,DLD-1,> 100 µM (inactive)
same,GI50,UACC-62,> 100 µM (inactive)
same,GI50,SNB-78,> 100 µM (inactive)
same,GI50,SK-MEL-2,> 100 µM (inactive)
same,GI50,SF-539,> 100 µM (inactive)
same,GI50,SNB-19,> 100 µM (inactive)
same,GI50,HL-60,> 100 µM (inactive)
same,GI50,OVCAR-8,> 100 µM (inactive)
same,GI50,UACC-257,> 100 µM (inactive)
same,GI50,Malme-3M,> 100 µM (inactive)
same,GI50,SK-OV-3,> 100 µM (inactive)
same,GI50,RPMI-8226,> 100 µM (inactive)
same,GI50,M14,> 100 µM (inactive)
same,GI50,CCRF-CEM,> 100 µM (inactive)
same,GI50,M19-MEL,> 100 µM (inactive)
same,GI50,OVCAR-4,> 100 µM (inactive)
same,GI50,A498,> 100 µM (inactive)
same,GI50,NCI-H460,> 100 µM (inactive)
same,GI50,SF-268,> 100 µM (inactive)
same,GI50,HCT-15,> 100 µM
same,GI50,K562,> 100 µM (inactive)
same,GI50,UO-31,> 100 µM (inactive)
same,GI50,KM-20L2,> 100 µM (inactive)
same,GI50,SK-MEL-5,> 100 µM (inactive)
same,GI50,SK-MEL-28,> 100 µM (inactive)
same,GI50,MOLT-4,> 100 µM (inactive)
same,GI50,U-251,> 100 µM (inactive)
same,GI50,OVCAR-3,> 100 µM (inactive)
same,GI50,KM12,> 100 µM (inactive)
same,GI50,HOP-18,> 100 µM (inactive)
same,GI50,HCT-116,> 100 µM (inactive)
same,GI50,DMS-273,> 100 µM (inactive)
same,GI50,ACHN,> 100 µM (inactive)
same,GI50,SW-620,> 100 µM (inactive)
same,GI50,RXF 393,> 100 µM (inactive)
same,GI50,NCI-H226,> 100 µM (inactive)
same,GI50,HOP-62,> 100 µM (inactive)
CC(C)(C)OC(=O)N1CC(C)(C)N2C(=O)C3(CCCO3)C12 (stereo unspecified),GI50,LXFL 529,> 100 µM (inactive)
same,GI50,DMS-114,> 100 µM (inactive)
same,GI50,COLO 205,> 100 µM (inactive)
same,GI50,NCI-H23,> 100 µM (inactive)
same,GI50,SN12C,> 100 µM (inactive)
same,GI50,TK-10,> 100 µM (inactive)
same,GI50,SNB-75,> 100 µM (inactive)
same,GI50,NCI-H522,> 100 µM (inactive)
same,GI50,IGROV-1,> 100 µM (inactive)
same,GI50,A549,> 100 µM (inactive)
same,GI50,786-0,> 100 µM (inactive)
same,GI50,EKVX,> 100 µM (inactive)
same,GI50,CAKI-1,> 100 µM (inactive)
same,GI50,HCC 2998,> 100 µM (inactive)
same,GI50,SF-295,> 100 µM (inactive)
same,GI50,DLD-1,> 100 µM (inactive)
same,GI50,UACC-62,> 100 µM (inactive)
same,GI50,LOX IMVI,> 100 µM (inactive)
same,GI50,SNB-78,> 100 µM (inactive)
same,GI50,SK-MEL-2,> 100 µM (inactive)
same,GI50,SF-539,> 100 µM (inactive)
same,GI50,HOP-92,> 100 µM (inactive)
same,GI50,SNB-19,> 100 µM (inactive)
same,GI50,HL-60,> 100 µM (inactive)
same,GI50,OVCAR-8,> 100 µM (inactive)
same,GI50,UACC-257,> 100 µM (inactive)
same,GI50,Malme-3M,> 100 µM (inactive)
same,GI50,SK-OV-3,> 100 µM (inactive)
same,GI50,RPMI-8226,19.5 µM (inactive)
same,GI50,M14,> 100 µM (inactive)
same,GI50,CCRF-CEM,67.1 µM (inactive)
same,GI50,M19-MEL,> 100 µM (inactive)
same,GI50,OVCAR-4,> 100 µM (inactive)
same,GI50,OVCAR-5,> 100 µM (inactive)
same,GI50,A498,> 100 µM (inactive)
same,GI50,NCI-H460,> 100 µM (inactive)
same,GI50,SF-268,> 100 µM (inactive)
same,GI50,HCT-15,> 100 µM
same,GI50,K562,58.9 µM (inactive)
same,GI50,UO-31,> 100 µM (inactive)
same,GI50,KM-20L2,> 100 µM (inactive)
same,GI50,SK-MEL-5,> 100 µM (inactive)
same,GI50,SK-MEL-28,> 100 µM (inactive)
same,GI50,MOLT-4,> 100 µM (inactive)
same,GI50,HT-29,> 100 µM (inactive)
same,GI50,U-251,45.3 µM (inactive)
same,GI50,OVCAR-3,> 100 µM (inactive)
same,GI50,KM12,> 100 µM (inactive)
same,GI50,HOP-18,> 100 µM (inactive)
same,GI50,HCT-116,> 100 µM (inactive)
same,GI50,DMS-273,37.8 µM (inactive)
same,GI50,ACHN,> 100 µM (inactive)
same,GI50,SW-620,14.9 µM (inactive)
same,GI50,RXF 393,> 100 µM (inactive)
same,GI50,NCI-H226,> 100 µM (inactive)
same,GI50,HOP-62,> 100 µM (inactive)
